We go through six molecules from US4866196A, “Phenoxyacetic acid derivatives and preparation thereof” (Tanabe Seiyaku Co., Ltd., priority 1986, dated 1989).

The subject of experiment [1] is arachidonic acid-induced pulmonary embolism. Nature of the experiment: Effect on arachidonic acid-induced pulmonary embolism (in vivo). The arrangement: species or system ddy-male mice. As to conditions: Mus musculus; oral, 3 hours before arachidonic acid; dose required to shorten the recovery time by at least 15% vs control; read-out: Minimum Effective Dose, inhibiting effect on arachidonic acid-induced pulmonary embolism. As for the experimental part: A test compound (suspended or dissolved in an aqueous sodium bicarbonate and 0.25% carboxymethylcellulose solution) was orally administered to ddy-male mice (5 weeks old, 10 mice per group) fasted overnight. Three hours later, arachidonic acid (125 mg/2.5 ml of 1% NaHCO3 solution+7.5 ml of 0.9% aqueous sodium chloride/kg) was injected to the tail vein of mice to induce pulmonary embolism, and the recovery time(minutes) of locomotive activity of the mice (i.e., the duration from the injection of arachidonic acid to the time the mice recovered from respiratory distress and began to walk) was compared with that of a control group of mice to which an aqueous 0.25% CMC solution was administered instead of the test compound solution. The inhibiting effect of each test compound on arachidonic acid-induced pulmonary embolism was estimated in terms of a minimum effective dose, i.e., the dose required to shorten the recovery time by at least 15% as compared with the control group.

Experiment [2] has as its system collagen-induced platelet aggregation. Nature of the experiment: Effect on collagen-induced platelet aggregation (in vitro). Type of experiment: cell-based, human. As to conditions: for IC50: 2 min, human platelet-rich plasma, 4×10^5 cells/mm^3, 2 minutes at 37° C., Born's method, read-out: IC50, collagen-induced platelet aggregation-inhibiting activity. As to the method:
Nine volumes of blood collected from a healthy human were mixed with one volume of 3.13% (w/v) trisodium citrate solution, and the mixture was centrifuged to give platelet-rich plasma ("PRP") as the supernatant. The bottom layer was further centrifuged to give platelet-poor plasma ("PPP") as the supernatant. PRP was diluted with PPP so that the platelet count was about 4×10^5 cells/mm^3. 25 μl of a test compound solution containing an equimolar amount of sodium bicarbonate was added to 200 μl of said diluted PRP. After the mixture was stirred for 2 minutes at 37° C., a collagen solution [25-29 μg/ml solution: Biochim. Biophys. Acta, 186, 254 (1969)] was added thereto to induce platelet aggregation. The degree of platelet aggregation was examined by Born's method (Nature, 194, 927 (1962)), and the platelet aggregation-inhibiting activity of the test compound was estimated. The platlet aggregation-inhibiting activity of the test compound was expressed as IC50, i.e., the concentration of the test compound required to induce 50% inhibition of collagen-induced platelet aggregation.

Experiment [3] deals with bleeding time. Nature of the experiment: Effect on bleeding time (in vivo). On the set-up: species or system ddy-male mice. As to conditions: Mus musculus; oral, 3 hours before tail cut; dose required to induce at least 50% prolongation of bleeding time vs control; read-out: minimum effective dose, prolonging effect on the bleeding time. As to the method:
A test compound (suspended or dissolved in an aqueous 0.25% carboxymethylcellulose solution) was orally administered to ddy-male mice (5 weeks old, 10 mice per group) fasted overnight. Three hours later, the tip (ca. 2 mm) of the tail was cut off under ether anesthesia, and said tail was immersed in physiological saline (37° C.) immediately. The bleeding time (seconds) of the medicated group of mice was compared with that of a control group of mice to which an aqueous 0.25% CMC solution was administered instead of the test compound solution. The prolonging effect of each test compound on the bleeding time was estimated in terms of a minimum effective dose, i.e., the dose required to induce at least 50% prolongation of the bleeding time as compared with that of the control group.

In brackets after ≈: the same amount, converted by molar mass.

Regarding `CC(CNS(=O)(=O)c1ccc(Cl)cc1)c1ccc(OCC(=O)O)c(F)c1` (racemic) [Compound No. 5, (±)4-(2-(4-chlorophenyl)sulfonylamino-1-methylethyl)-2-fluorophenoxyactic acid], the minimal effective dose in experiment [1] was determined as 0.03 mg/kg.

On to `CC(CNS(=O)(=O)c1ccc(Cl)cc1)c1ccc(OCC(=O)O)cc1` (racemic) [Compound No. 2, (±)4-[2(4-chlorophenyl)sulfonylamino-1-methylethyl]phenoxyacetic acid], for which, in experiment [2], the IC50 is 0.5 µg/mL (≈ 1.3 µM). For the same molecule, in experiment [2] (in vitro, times as strong as known compound of JP 35910/1982), the “platelet aggregation-inhibiting activity relative to 4-(2-benzenesulfonylaminoethyl)phenoxyacetic acid” value was “about 4 times”. Besides, the minimal effective dose in experiment [1] turned out to be 0.3 mg/kg; in experiment [3], 10 mg/kg.

For `CC(Cc1ccc(OCC(=O)O)cc1)NS(=O)(=O)c1ccc(Cl)cc1` (racemic) [Compound No. 1, (±)4-[2(4-chlorophenyl)sulfonylaminopropyl]phenoxyacetic acid], the IC50 in experiment [2] is 0.7 µg/mL (≈ 1.82 µM). Further, the minimal effective dose in experiment [1] was 1 mg/kg; in experiment [3], 3 mg/kg.

As for `CC(CNS(=O)(=O)c1ccccc1)c1ccc(OCC(=O)O)c(F)c1` (racemic) [Compound No. 4, (±)4-(2-benzenesulfonylamino-1-methylethyl)-2-fluorophenoxyacetic acid], in experiment [1], the minimal effective dose worked out at 0.1 mg/kg.

With `O=C(O)COc1ccc(CCNS(=O)(=O)c2ccccc2)cc1` [Known Compound, 4-(2-benzenesulfonylaminoethyl)phenoxyacetic acid, reference compound], the IC50 in experiment [2] came to 2 µg/mL (≈ 5.96 µM). Further, the minimal effective dose in experiment [1] and in experiment [3] was 30 mg/kg in each case.

Take `CC(CNS(=O)(=O)c1ccc(Br)cc1)c1ccc(OCC(=O)O)cc1` (racemic) [Compound No. 3, (±)4-[2(4-bromophenyl)sulfonylamino-1-methylethyl]phenoxyacetic acid]: the IC50 in experiment [2] is 0.5 µg/mL (≈ 1.17 µM). The minimal effective dose in experiment [1] worked out at 0.1 mg/kg; in experiment [3], 10 mg/kg.
